Experimental data reported in patent publication US8906858B2, “Method for the prophylactic or therapeutic treatment of glucocorticoid-induced osteoporosis” (Fritz-Lipmann-Institut E. V. Leibniz-Institut Fuer …, priority 2010, dated 2014).
Entries after “also recorded” stand apart in the source; their conditions may differ. Read-outs that look alike come from different tables or passages of the source.

How the values were obtained:
human cells = conditions: cited from earlier work
[1] = test system: primary wild type osteoblasts; assay: Soluble factors added to osteoblasts during osteogenic induction in presence or absence of Dex; format: cell-based, mouse; conditions: day 10, with Dex
Protocol: FIG. 7. Differential gene regulation in GR^dim osteoblasts and bone organs by GCs and involvement of AP-1 in suppression of IL-11 in osteoblast differentiation. (A-E) Primary osteoblasts were grown until confluence and treated as described in FIG. 4A. qRT-PCR-determined mRNA expression levels of GILZ, Per-1, KLF15, Lif (LIF) and II11 (IL-11) after six hours. (F-H) qRT-PCR-determined mRNA expression level of IL-11 in organ cultures of GR mutant fetal hind legs (F), in dN^Runx2Cre osteoblasts (G) and c-jun^null MEFs (H) after six hours treatment. (I) Chromatin immunoprecipitation of MEFs after six hours. […] IgG precipitation served as negative control and amplification of the input as positive control. […] At day 10, ALP activity was determined and at day 20, Alizarin Red staining was performed. (K) Quantification of ALP-positive cells treated as in (J) after 10 days. (L) qRT-PCR-determined Runx2 mRNA expression level in cells treated as in (J) after 10 days.
FIG. 13. Effects of GR regulated soluble factors on osteoblast cell numbers. […] At day 10 cell counts were determined by automatic microscopy. Data are represented as mean+/−SEM. *<0.05.
FIG. 14. Effects of GR regulated soluble factors on osteoblast cell differentiation. Primary wild type osteoblasts were differentiated with or without Dex. At day 10 the specific ALP activity was determined and is depicted as ALP positive cells in percent in the absence or presence of NGF (A), IL-6 (B), EGF (C) and LIF (D). Data are represented as mean+/−SEM. * p<0.05; ** p<0.01.
Primary osteoblasts were isolated from either embryonic (E18.5) or neonatal calvaria by sequential digestions and cultivated as previously described (David et al., 2005). c-Jun-deficient cells were obtained from previously described mice (Schreiber et al., 1999). […] Differentiation of osteoblasts was determined by staining for ALP activity (ALP kit, Sigma or ELF® Phosphatase Detection Kit, ATCC) or by Alizarin Red staining (Sigma) at indicated time points. Apoptosis was detected by In situ Cell Death Detection Kit (Roche), and proliferation with fluorescent immunohistochemistry using mouse anti-Ki-67 (BD Pharmingen™) and Alexa Fluor® 594-labeled donkey anti-mouse IgG (Molecular Probes™). Quantification of the stainings and cell numbers according to DAPI labeling was performed by automated microscopy using Cellomics ArrayScan and software HCS Scan® (Thermo-Fischer). The factors EGF (Calbiochem), NGF2 (Sigma), IL-6 (ImmunoTools), IL-11 (Antigenix America, Inc.) and LIF (Chemicon) were added to the culture after differentiation at concentrations of 0.8, 4 and 20 ng/ml. qRT-PCR was performed as previously described (Tuckermann et al., 2007). Primer information can be provided upon request.

[2] = test system: Female 9 week old FVB/N mice; assay: LIF administration to prednisolone treated mice, MicroCT analysis; format: in vivo, mouse
Protocol: FIG. 23. LIF treatment elevates bone density of prednisolone treated mice. Female 9 week old FVB/N mice were treated with control pellets (sham), prednisolone (Pred) releasing pellets (12 mg/kg/day releasing rate) and were treated one day later with PBS and LIF i.p. injections twice a day (0.2 mg/kg/day) until 15 days. Mice were sacrificed on day 16. MicroCT Analysis was performed and representative longitudinal sections shown in (A), Bone Volume/Tissue volume determined (B) and trabecular thickness and trabecular numbers calculated (C, D). n=6, * p<0.05, ** p<0.01, *** p<0.001
After 15 days the bone mineral density was determined by micro computertomography (FIG. 23).
Female 9 week old FVB/N mice were treated with control pellets (sham), prednisolone (Pred) releasing pellets (12 mg/kg/day releasing rate) and were treated one day later with PBS and LIF i.p. injections twice a day (0.2 mg/kg/day) until 15 days. Mice were sacrificed on day 16.

[3] = test system: osteoblastogenesis in bone marrow / long bones of mice; assay: CFU-OBs and Col1a1 mRNA in long bones after three days of prednisolone; format: in vivo, mouse; conditions: for Col1a1 expression in long bones / osteoblastogenesis, colony forming units of osteoblasts (CFU-OBs): three days of prednisolone
From the text: (G) Number of CFU-OBs within the bone marrow/leg (femur and tibia) and (H) qRT-PCR-determined Col1a1 mRNA expression in long bones of mice treated with placebo or prednisolone for three days.
(F) Number of CFU-OBs within the bone marrow/leg and (G) qRT-PCR-determined Col1a1 mRNA expression in long bones of mice treated with placebo or prednisolone for three days.
CFU-OBs per leg were obtained by counting Alizarin Red-positive colonies of 2×10^6 bone marrow cells (excluding erythrocytes) plated per 6-well after 20 days under osteogenic conditions.

bone tissue of mice = assay: Osteoblast proliferation and apoptosis in vivo (BrdU, TUNEL); parameters: species or system mouse; conditions: prednisolone for one day
Protocol: FIG. 10. Proliferation and apoptosis in bones of prednisolone treated GR^Runx2Cre animals. (A, B). GR^flox and GR^Runx2Cre mice were treated with prednisolone for one day pulsed with BrdU for 4 hours and histological sections of long bones stained with anti-BrdU antibody (A) and with a TUNEL kit (B). BM: bone marrow; Scale bar: 20 μm.
Mice were treated with prednisolone (12.5 mg/kg/d) for one day and they got pulsed with 10 μg/g body weight BrdU 4 hours before dissection. Decalcified deparaffined femur sections were stained with the In situ Cell Death Detection Kit (Roche) for apoptosis and rat anti-BrdU (Abcam) following Peroxidase coupled anti-rat IgG for proliferation.

MMP-13 = conditions: monocytic cells
IL-11 signaling = conditions: primary osteoblasts, 10^−6 M CpdA
Protocol: (§1) FIG. 18. […] B) After 6 h of cultivation, IL-11 mRNA expression levels were measured from total RNA extracts. C) IL-11 protein was measured in the supernatant using ELISA after 36 h of culture (n=3; Beta-actin was used for standardisation). *P<0.05, **P<0.01; 1-way ANOVA followed by Dunnett's multiple comparison test. […] E) Western blot analysis is shown for STAT3 phosphorylation of bones from GR^Runx2Cre mice subjected to organ cultures, treated as in D for 36 h.

[4] = test system: Cxcl10 and IL-6 mRNA expression; conditions: primary osteoblasts, 10^−6 M CpdA, 6 h
Protocol: as §1

[5] = test system: Mouse embryonic fibroblasts; assay: Functional screening assay, automated fluorescent microscopy of ALP activity and cytokines; format: cell-based
Protocol: Automated fluorescent microscopy for high content screening of factors involved in osteoblast differentiation. (A) In osteogenic differentiated (OI) wild type MEFs ALP activity is shown by a fluorescent product (ELF®, green) and nuclei are indicated by DRAQ5® staining (red).
500 Mouse embryonic fibroblasts are seeded per 384 well (2000 cells into a 96 well) until confluency (approx. 2 days). […] 3.7% Formalin is added (50 μl).
Differentiation of osteoblasts treated either with agents to be tested or with RNAi will be determined by staining for alkaline phosphatase activity (ALP kit; Sigma, Inc. or ELF® Phosphatase Detection Kit, ATCC). The preserved anti-inflammatory activity is monitored by immunhistochemical staining with antibodies against IL-6 and CXCL10. The avoidance to affect IL-11 and LIF expression is additionally determined by immunohistochemistry as well.
After fixation, the wells are stained with the nuclear stain DRAQ5 and a fluorescent substrate (ELF) for alkaline phosphatase activity. This allows monitoring cellular ALP activity by automatic microscopy and evaluation with the respective software (FIG. 17).
Immunohistochemical staining towards the antibodies IL-6, CXCL10, IL-11 and/or LIF follows as a last step. Fluorescent signals of the antibodies will be monitored by automatic microscopy and evaluation with the respective software.

DBA/1 mice = conditions: CpdA (300 ug) daily for 8 d
Protocol: (§2) FIG. 19. […] A) Cells were fixed and stained for ALP activity after 10 d and for mineralization of the matrix using Alizarin red after 20 d of culture. B) mRNA expression levels of osteoblast marker genes are shown, indicated as arbitrary units of actin expression.
(§3) FIG. 22. Determination of alkaline phosphatase activity (ALP) and corresponding IL-11 levels with ELISA 48 hrs after induction. A) Primary osteoblasts of wild type mice were cultured for 10 days with osteogenic inducers (OI) or 0.5 ng/ml IL-11 compared to untreated cells (ctr). Cells were fixed and stained for alkaline phosphatase activity (ALP). The corresponding IL-11 levels were determined with ELISA 48 hrs after induction.

primary osteoblasts = conditions: 10^−6 M CpdA, OI differentiation
Protocol: as §2, §3

[6] = wild type (GR^flox) mice, prednisolone for two weeks

Protocol for 10-week-old female mice: Vertebral bodies of 10-week-old female GR^Runx2cre and GR^flox mice treated with placebo (Plac) or prednisolone (Pred; 12.5 mg/kg/day) for two weeks were analyzed by (A) von Kossa staining of undecalcified sections and (B) histomorphometry of BV/TV and TbTh. (C) DPD/Cr levels in urine of mice after prednisolone treatment at indicated times. (D) Histomorphometry of osteoblast number/bone perimeter (NOb/BPm), osteocyte number/bone area (NOy/BAR) and osteoclast number/bone perimeter (NOc/BPm). (E) Fluorescent micrographs of dual calcein labeling and (F) its quantitative analysis of bone formation rate/bone surface (BFR/BS). (G) Number of CFU-OBs within the bone marrow/leg (femur and tibia) and (H) qRT-PCR-determined Col1a1 mRNA expression in long bones of mice treated with placebo or prednisolone for three days. (I) Fluorescent micrographs of dual calcein labeling and (J) its quantitative analysis of BFR/BS in tibiae of GR^LysMcre and corresponding GR^flox control mice.
(A) Fluorescent micrographs of dual calcein labeling and (B) its quantitative analysis of BFR/BS in vertebrae of GR^dim and wild type (wt) mice treated as described in FIG. 2. (C) Vertebral bodies were analyzed by von Kossa staining of undecalcified sections. (D) Histomorphometry of BV/TV, TbTh, (E) NOb/BPm, NOy/BAR and NOc/BPm. (F) Number of CFU-OBs within the bone marrow/leg and (G) qRT-PCR-determined Col1a1 mRNA expression in long bones of mice treated with placebo or prednisolone for three days. (H) DPD/Cr levels in urine of mice after prednisolone treatment at indicated times.
All animal experiments were performed in accordance with accepted standards of animal welfare and with permission of the responsible authorities of Baden-Württemberg and Thüringen. […] To induce osteoporosis, prednisolone (or a placebo control) was applied for 14 days by subcutaneous implantation of slow-release pellets resulting in a calculated dose of 12.5 mg/kg/d (15 mg; 60-day release; Innovative Research of America, Inc.) in 10-week-old female mice.
Parameters of static and dynamic histomorphometry were quantified on toluidine blue-stained undecalcified proximal tibia and lumbar vertebral sections as described previously (Amling et al., 1999) using the Osteo-histomorphometry system (Osteometrics, Atlanta, Ga., USA) (Parfitt et al., 1987). Osteocytes were assessed at the cortical bone by OsteoMeasure™ software. To assess dynamic histomorphometric indices, mice were given two injections of calcein, nine and two days before dissection. Fluorochrome measurements for the determination of the bone formation rate were performed on two nonconsecutive 12-μm-thick sections for each animal. Statistical differences between the groups (n=5-6) were assessed by the Student's t-test.

Compound: human LIF: human mature LIF polypeptide of 180 amino acid residues
- activity on human and mouse cells (human cells): equally active on both human and mouse cells

Compound: IL-6: Interleukin 6 added to osteoblast cultures
- rescue of Dex-reduced osteoblast cell numbers [1]: neither rescued the reduced cell numbers

Compound: C[C@]12C=CC(=O)C=C1CC[C@@H]1[C@@H]2[C@@H](O)C[C@@]2(C)[C@H]1CC[C@]2(O)C(=O)CO [prednisolone]
- trabecular thickness ([2]; prednisolone pellets 12 mg/kg/day, also in LIF treated animals): reduction of trabecular thickness
- bone formation rate (10-week-old female mice; GR^LysMCre and wild type mice, prednisolone for two weeks): similarly reduced
- numbers of osteocytes, osteoblasts and osteoblast surface (10-week-old female mice; GR^Runx2Cre mice): unaltered
- bone mineral density and trabecular thickness (10-week-old female mice; GR^Runx2Cre mice, prednisolone for two weeks): not affected
- bone formation, dynamic histomorphometry following dual calcein labeling (10-week-old female mice; GR^Runx2cre mice): fully protected
- bone formation (10-week-old female mice; GR^dim and wild type mice): similarly repressed
- bone mass and trabecular thickness of the vertebrae (10-week-old female mice; GR^dim and wild type mice): reduced to a comparable degree
- osteoblast and osteocyte numbers (10-week-old female mice; GR^dim and wild type mice): strong reduction
- osteoclast numbers (10-week-old female mice; GR^dim and wild type mice): not changed
- resorption (DPD/Cr) (10-week-old female mice; GR^dim and wild type mice): slightly decreased
- osteoclast numbers (10-week-old female mice; GR^flox and GR^Runx2Cre mice): not affected
- Resorption, deoxypyridinoline (DPD/Cr) levels (10-week-old female mice; GR^flox and GR^Runx2Cre mice, urine): slightly decreased
- numbers of osteocytes, osteoblasts and osteoblast surface (10-week-old female mice; GR^flox mice): decreased
- unspecific toxic effects of the prednisolone dose (10-week-old female mice; mouse, in vivo): no unspecific toxic effects
- reduction of osteocytes (10-week-old female mice; prednisolone treated mice): 20-35%
- bone formation, dynamic histomorphometry following dual calcein labeling (10-week-old female mice; vertebrae of wild type mice): almost complete inhibition
- bone mineral density in vertebral bones (10-week-old female mice; [6]): reduced
- trabecular thickness (10-week-old female mice; [6]): decreased
- Col1a1 expression in long bones ([3]; GR^Runx2Cre mice): remained unchanged
- osteoblastogenesis, colony forming units of osteoblasts (CFU-OBs) ([3]; GR^Runx2Cre mice): not in GR^Runx2Cre mice
- Col1a1 expression ([3]; GR^dim and wild type mice): similarly reduced in both genotypes
- Osteoblastogenesis in vitro (CFU-OBs) ([3]; GR^dim and wild type mice): as efficiently suppressed in GR^dim as in wild type mice
- Col1a1 expression in long bones ([3]; GR^flox mice): strongly reduced
- osteoblastogenesis, colony forming units of osteoblasts (CFU-OBs) ([3]; GR^flox mice): strongly impaired
- TUNEL and BrdU pulse labeling within bone tissue (bone tissue of mice): did not alter

Compound: LIF: Leukaemia inhibitory factor, secreted polyfunctional cytokine; recombinant protein
- trabecular number ([2]; LIF i.p. 0.2 mg/kg/day, 15 days): strong increase
- bone mass (bone volume/tissue volume) ([2]; sham treated and prednisolone treated animals, LIF i.p. 0.2 mg/kg/day, 15 days): increases bone mass
- rescue of Dex-impaired osteoblast differentiation (ALP positive cells) [1]: potently antagonized; also recorded: ameliorated the inhibition of osteoblast differentiation
- rescue of Dex-reduced osteoblast cell numbers [1]: not rescuing

Compound: CNCC(Cl)c1ccc(OC(C)=O)cc1.Cl (stereo not drawn) [Compound A]
- AP-1 dependent gene MMP-13 (MMP-13): repressed
- IL-11 signaling (IL-11 signaling): not IL-11 signaling
- proinflammatory gene expression [4]: inhibits proinflammatory gene expression
- result in the method for identifying agents [5]: tested as a hit
- osteoblast markers in vivo (DBA/1 mice): does not affect
- osteoblast differentiation and osteoblast markers in vitro (primary osteoblasts): does not affect

Compound: epidermal growth factor: epidermal growth factor, evokes HB-EGF signaling in osteoblasts (NSDSECPLSHDGYCLHDGVCMYIEALDKYACNCVVGYIGERCQYRDLKWWELR; not fully specified; Epidermal growth factor; UniProt P01133 971-1023, looked up)
- rescue of Dex-impaired osteoblast differentiation (ALP positive cells) [1]: did not prevent the inhibition of differentiation
- rescue of Dex-reduced osteoblast cell numbers [1]: counteracted the reduction in cell number
